Drawing on PubChem BioAssay (NCI), this text covers TGI and GI50 for 20 compounds.

Where “and” joins values, the source holds several entries; their conditions need not be identical. Equal values may be shown once.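 Compound exposure: 48 hours, 5 concentrations, 96-well plates. The concentration for 50% growth inhibition is given as GI50. TGI marks complete inhibition of growth.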

What all share (test): growth of human tumour cells (NCI), 48 h
In experiment [1] the test system is NCI-H522 lung.
Experiment [2] relates to U251 CNS.
Experiment [3] concerns ACHN renal.
Experiment [4] relates to A498 renal.
For experiment [5], the system named is MOLT-4 leukemia.
The subject of experiment [6] is SW-620 colon.
Experiment [7] has as its system SR leukemia.
Experiment [8] has as its system SNB-75 CNS.
The subject of experiment [9] is 786-0 renal.
In experiment [10] the test system is A549 NSCLC.
Experiment [11] deals with SK-MEL-28 melanoma.
The subject of experiment [12] is M14 melanoma.
For experiment [13], the system named is BT-549 breast.
In experiment [14] the test system is HT29 colon.
Experiment [15] concerns NCI-H226 lung.
In experiment [16] the test system is MDA-N.

With `CC(C)OP(=O)(OC(C)C)/C(Cl)=N/Nc1ccc([N+](=O)[O-])cc1`, the TGI in experiment [1], in [2], in [3], in experiment [4], in experiment [5] and in experiment [6] was over 100 µM in each case. Also, the TGI in experiment [7], in experiment [8], in [9], in experiment [10], in [11] and in [12] was over 100 µM in each case.

Regarding `O=C(O)CN1C=C(C(=O)c2cc3ccccc3n2S(=O)(=O)c2ccccc2)CCC1`, the TGI in [13], in [2], in experiment [3], in experiment [4], in [5] and in experiment [6] was over 100 µM throughout. Moreover, the TGI in experiment [7], in [14], in experiment [15], in [8], in experiment [9] and in experiment [10] was over 100 µM each time. For the same compound, the TGI in [11] and in [12] was over 100 µM each time.

In the case of `COC(=O)C1CCC(=O)N1CN(C(C)=O)c1ccccc1Cl` (stereo not drawn), the TGI in [1], in experiment [2], in experiment [3], in experiment [4], in experiment [5] and in [6] was over 100 µM each time. In addition, the TGI in experiment [7], in experiment [14], in experiment [16], in [15], in experiment [8] and in experiment [9] was over 100 µM throughout. For the same compound, the TGI in [10], in experiment [11] and in [12] was over 100 µM each time.

Turning to `Cc1ccc(S(=O)(=O)NC(=O)NCCc2cnc[nH]2)cc1`, the TGI in [1], in experiment [2], in [3], in experiment [4], in [5] and in experiment [6] was over 100 µM each time. Besides, the TGI in experiment [7], in experiment [14], in experiment [15], in [8], in [9] and in experiment [10] was over 100 µM each time. Moreover, the TGI in [11] and in [12] was over 100 µM throughout.

In the case of `COc1ccccc1NC(=S)NN=C(C)c1cccc(C(C)=NNC(=S)Nc2ccccc2OC)n1`, the TGI in [1] was 97.3 µM; in experiment [2], over 100 µM; in experiment [3], 64.3 µM; in experiment [4], 93 µM; in experiment [5], 74.5 µM; in [6], over 100 µM. Moreover, the TGI in [7] is 17.2 µM; in [14], over 100 µM; in experiment [16], over 100 µM; in [15], over 100 µM; in [8], over 100 µM; in experiment [9] it was 37.7 µM. In addition, the TGI in [10] is over 100 µM; in [11] it was over 100 µM; in experiment [12], 25.8 µM.

For the compound `O=[N+]([O-])c1cccc2nc3ccccc3c(NCCCn3ccnc3[N+](=O)[O-])c12`, the TGI in [1] was 0.0167 µM and 0.0252 µM; in [2], 0.00178 µM; in [6] it was 0.103 µM; in experiment [7], 0.131 µM; in experiment [14], 0.00124 µM; in experiment [16] it was 0.000244 µM. Besides, the TGI was 0.00362 µM and 0.0351 µM in experiment [15]; 0.0775 µM in experiment [8]; 0.0137 µM in experiment [9]; 0.000256 µM in [12]. In addition, the GI50 in experiment [3] is 33.4 µM; in [7], under 0.0001 µM; in [11], 45.4 µM.

Take `CC1=CC(=O)CC(C)(C)C1/C=C/C(C)=C/C=C/C(C)=C/C=C/C=C(C)/C=C/C=C(C)/C=C/C1C(C)=CC(=O)CC1(C)C` (stereo not drawn): the TGI in [1] is 52.1 µM; in [2], over 100 µM; in experiment [3], over 100 µM; in experiment [4], over 100 µM; in experiment [5], over 100 µM; in [6], over 100 µM. Moreover, the TGI in experiment [7], in [14], in [16], in experiment [15], in experiment [9] and in [11] was over 100 µM each time. For the same compound, the TGI in experiment [12] is over 100 µM.

Turning to `O=c1[nH]c2ccccc2c(=O)n1/N=C/c1ccc(O)cc1`, the TGI in experiment [13], in experiment [2], in experiment [3], in experiment [4], in [5] and in [6] was over 100 µM each time. Moreover, the TGI in [7], in [14], in experiment [15], in experiment [8], in experiment [9] and in experiment [10] was over 100 µM in each case. Further, the TGI in experiment [11] and in experiment [12] was over 100 µM in each case.

As to `Cc1ccc(NC(Nc2ccc(C)cc2C)=C(C(Cl)=C(Cl)Cl)[N+](=O)[O-])c(C)c1`, the TGI in [1] was found to be 28 µM; in [13], 38.8 µM; in experiment [3], 28.5 µM; in [4], 36.3 µM; in [5], 31.2 µM; in experiment [6], 33.1 µM. Moreover, the TGI in experiment [7] turned out to be 11.3 µM; in experiment [14] it was 33.3 µM; in experiment [15] it was 32.3 µM; in experiment [8] it was 22.1 µM; in experiment [9], 30.1 µM; in experiment [10] it was 28.4 µM. Moreover, the figures for the TGI in experiment [11] and in experiment [12] were 35.2 µM and 21.3 µM, respectively.

Consider `CC(C)(O)/C=C\P(=O)(O)O`, for which the TGI in experiment [1], in experiment [2], in experiment [3], in experiment [6], in experiment [7] and in experiment [14] was over 100 µM throughout. Moreover, the TGI in [16], in experiment [15], in experiment [8], in [9], in experiment [10] and in experiment [11] was over 100 µM in each case. This compound registered a TGI in [12] of over 100 µM.

With `CC1(C)O[C@@H]([C@H](O)CO)[C@H](O)[C@@H](C2SCCCS2)O1`, the TGI in experiment [13], in experiment [2], in experiment [3], in experiment [4], in experiment [6] and in experiment [7] was over 100 µM throughout. The TGI in [14], in experiment [15], in experiment [8], in [9], in experiment [10] and in experiment [11] was over 100 µM in each case. Besides, the TGI in experiment [12] was over 100 µM.

For the compound `CC(Nc1ncc2c(n1)-c1ccccc1OC2)C(=O)O` (stereo not drawn), the TGI in experiment [2], in [3], in [5], in [6], in experiment [7] and in experiment [14] was over 100 µM throughout. In addition, the TGI in [16], in [15], in [8], in [9], in experiment [10] and in experiment [11] was over 100 µM throughout. Besides, in experiment [12], the TGI is over 100 µM.

As for `N#CC(C(=O)c1cccnc1Cl)c1nc2cc(C(F)(F)F)ccc2s1` (stereo not drawn), the TGI was 61.4 µM in [1]; over 100 µM in experiment [13]; over 100 µM in experiment [2]; over 100 µM in experiment [3]; 87 µM in experiment [4]; over 100 µM in [5]. Also, the TGI in experiment [6], in experiment [14], in [15], in experiment [8], in experiment [9] and in [10] was over 100 µM each time. Besides, the TGI in experiment [11] and in [12] was over 100 µM in each case.

As for `COC(=O)CC(NC(=O)OCc1ccccc1)C(C(C)=O)C(=O)OCc1ccccc1` (stereo not drawn), the TGI in [1], in [2], in experiment [3], in experiment [4], in experiment [5] and in experiment [6] was over 31.6 µM throughout. Moreover, the TGI in experiment [7] was over 100 µM; in [8] it was 30.8 µM; in [9], over 31.6 µM; in experiment [10], over 31.6 µM; in experiment [11], over 31.6 µM; in experiment [12] it was over 31.6 µM.

`CCN(CC)c1cccc2c1/C(=N/O)CCCC2`: the TGI in [1], in experiment [2], in [3], in experiment [5], in [6] and in experiment [7] was over 100 µM throughout. The TGI in [14], in experiment [15], in experiment [8], in experiment [9], in experiment [10] and in experiment [11] was over 100 µM each time.

On to `COP(=O)(OC)C(=O)N1N(c2ccc([N+](=O)[O-])cc2)C(=O)C(C)NC1(NNc1ccc([N+](=O)[O-])cc1)P(=O)(OC)OC` (stereo not drawn), for which the TGI in [1], in [2], in experiment [3], in experiment [4], in [5] and in experiment [6] was over 100 µM each time. The TGI in experiment [7], in experiment [15], in experiment [8], in experiment [9], in experiment [10] and in [11] was over 100 µM in each case. The same compound came in with a TGI in experiment [12] of over 100 µM.

Regarding `NNC(=S)N/N=C(\C(=O)Nc1cccc(O)c1)C1C(=O)NC(=S)NC1=O`, the TGI in experiment [1], in experiment [13], in [2], in [3], in [4] and in experiment [5] was over 100 µM each time. The TGI in [6], in experiment [7], in experiment [14], in experiment [15], in experiment [8] and in [9] was over 100 µM in each case. Besides, the TGI in experiment [10], in experiment [11] and in experiment [12] was over 100 µM each time.

Take `OC(c1ccc(F)cc1)C(F)(F)c1nc2ccccc2o1` (stereo not drawn): the TGI in experiment [13], in experiment [2], in experiment [3], in [4], in experiment [5] and in experiment [6] was over 100 µM throughout. Moreover, the TGI in experiment [7], in [14], in experiment [15], in [8], in [9] and in [11] was over 100 µM throughout. Moreover, in experiment [12], the TGI is over 100 µM.

`Nc1nc2c3nc(Nc4ccccc4)sc3nc(=S)n2c2sc(Nc3ccccc3)nc12`: the TGI in experiment [1], in [2], in experiment [3], in experiment [4], in [6] and in experiment [7] was over 100 µM throughout. Besides, the TGI in experiment [14], in experiment [15], in experiment [8], in experiment [9], in experiment [10] and in experiment [11] was over 100 µM throughout. In [12], the TGI was over 100 µM.

Consider `COc1ccccc1NC(=S)N/N=C/c1c(C)n(C)n(-c2ccccc2)c1=O`, for which the TGI in experiment [13], in experiment [2], in [3], in experiment [4], in experiment [5] and in experiment [6] was over 100 µM in each case. The TGI in [7], in [14], in experiment [15], in experiment [8], in [9] and in experiment [11] was over 100 µM in each case. Besides, in experiment [12], the TGI is over 100 µM.
